{"source": "patent US20080153872A1", "about": "“Bis-(Coumarin) Compounds With Anti-Inflammatory Activity” (priority 2005, published 2008)", "key": {"[1]": {"biological_target": "T1, CysLT1 receptor (Homo sapiens, UniProt Q9Y271)", "T1 construct": "expressed in transfected cells; host or cells: CHO-K1", "T1 sequence (Q9Y271 1-337)": "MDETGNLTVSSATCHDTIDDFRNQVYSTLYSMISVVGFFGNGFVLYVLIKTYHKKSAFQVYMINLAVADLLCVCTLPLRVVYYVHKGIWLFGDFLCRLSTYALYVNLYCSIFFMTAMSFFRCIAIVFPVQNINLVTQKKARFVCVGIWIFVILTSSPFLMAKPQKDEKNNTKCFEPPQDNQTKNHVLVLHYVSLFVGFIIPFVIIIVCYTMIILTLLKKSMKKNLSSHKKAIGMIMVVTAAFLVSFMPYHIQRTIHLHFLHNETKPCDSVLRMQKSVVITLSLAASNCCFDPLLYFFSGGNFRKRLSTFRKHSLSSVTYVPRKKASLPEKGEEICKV", "experiment": "Human cysteinyl leukotriene receptor 1 (CysLT1) radioligand binding assay", "conditions": "10 μM concentration; CHO-K1 cells", "description": "(§1) All compounds were dissolved in dimethyl sulfoxide (DMSO). Final concentration of the DMSO in all tests was 1% (v/v). Inhibition in all tests is considered preferred if it exceeds 50% at 10 μM concentration (or less).\nCysLT1 receptor is involved in immune diseases such as asthma, and has clinical significance as a point of intervention in asthma therapy. CysLT1 receptor is expressed in CHO-K1 cells (Chinese hamster ovary cells K1 clone). This is a competitive radioligand binding assay where substances compete with [^3H]-labeled Leulcotirene D4 (LTD4). Radioactive substance is measured with scintillation counting. Percentage of inhibition is calculated from the total radioactivity of the sample."}, "[2]": {"system": "human PDE4", "experiment": "Human PDE4 assay (U937)", "assay_type": "biochemical", "conditions": "10 μM concentration", "description": "as §1\nPDE4 assay. PDE is implicated in diseases such as chronic obstructive pulmonary disease and neutrophilia. Human monocytic leukemia cell line U937 is pre-incubated at 25° C. in Tris-HCl buffer containing magnesium ions for 15 minutes. 1.01 μM tritium labeled cyclic adenosine monophosphate (cAMP) is added as substrate, followed by incubation at 25° C. for 20 minutes. Percentage of inhibition is calculated by comparing the adenosine levels in supernatant which is formed from cAMP in treated versus control cells."}, "[3]": {"system": "Human prostanoid receptor", "experiment": "Human prostanoid receptor assay ([3H]-PGD2 competition)", "assay_type": "binding", "conditions": "10 μM concentration; CHO-K1", "description": "as §1\nHuman prostanoid receptor is expressed in Chinese hamster ovary cell line, clone K1 (CHO-K1). Substances and radioactive competitor (tritium labelled Prostaglandin D2 in 1.7 nM concentration) are incubated with cells in HEPES buffer for 2 hours at 25° C. in the presence of manganese ions. Level of the bound PGD2 is measured by scintillation counting, and competition is calculated from comparing the total amount of the bound PGD2 in treated versus control cells. Prostanoids are involved in many physiological and pathological processes, from inflammation to pain."}, "[4]": {"biological_target": "T2, TxA2 receptor (Homo sapiens, UniProt P21731)", "T2 construct": "expressed in transfected cells; host or cells: HEK-293", "T2 sequence (P21731 1-343)": "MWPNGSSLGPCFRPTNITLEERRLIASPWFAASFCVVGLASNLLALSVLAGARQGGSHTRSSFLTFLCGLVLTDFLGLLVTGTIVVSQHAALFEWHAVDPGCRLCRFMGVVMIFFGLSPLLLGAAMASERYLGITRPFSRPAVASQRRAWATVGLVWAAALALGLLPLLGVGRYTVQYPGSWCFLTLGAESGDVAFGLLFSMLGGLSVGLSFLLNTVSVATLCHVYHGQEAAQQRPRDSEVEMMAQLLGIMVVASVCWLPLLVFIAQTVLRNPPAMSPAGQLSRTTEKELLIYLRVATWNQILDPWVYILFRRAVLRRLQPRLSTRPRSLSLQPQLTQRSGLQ", "experiment": "Human thromboxane A2, TxA2, assay (SQ-29548 competition)", "assay_type": "binding", "conditions": "10 μM concentration; HEK-293", "description": "as §1\nTxA2 receptor is expressed in HEK-293 cell line. Compounds and radiolabelled competitor SQ-29548 are incubated for 30 minutes at 25° C. Level of bound SQ-29548 is measured by scintillation counting, and competition is calculated from the total amount of the bound SQ-29548. […] is an unstable lipid mediator involved in blood clotting, and immune processes."}, "[5]": {"system": "CD1 mice", "experiment": "PMA induced ear oedema in CD1 mice", "assay_type": "in vivo, mouse", "conditions": "topical, single dose of 250 or 100 μg/15 μL/ear; statistically significant vs positive control", "description": "Male CD1 mice (Iffa Credo, France) weighing ˜35-40 g were randomly grouped (n=8 in vehicle treated test group, dexamethasone treated control group as well as in groups treated with compounds to be assayed). Test compounds, dexamethasone as well as vehicle (Trans-phase Delivery System, containing benzyl alcohol 10%, acetone 40% and isopropanol 50%) (all from Kemika, Croatia), were administered topically to the internal surface of the left ear thirty minutes prior to administration of phorbol 12-myristate 13-acetate (PMA) (Alexis biochemicals, USA). Test compounds were administered at a single dose of 250 or 100 μg/15 μL/ear and dexamethasone at a single dose of 50 μg/15 μL/ear. Thirty minutes later, 0.01% PMA solution in acetone was applied topically to the same area of each animal in a volume of 12 μL/ear. During the treatment and challenge, animals were anaesthetized by using inhalation anaesthesia. Six hours after the challenge, animals were euthanized by asphyxiation in 100% CO2 atmosphere. For assessing the auricular oedema, 8 mm discs were cut out of left and right auricular pinna and weighed. The degree of oedema was calculated by subtracting the weight of 8 mm disc of the untreated ear from that of the treated contralateral ear."}}, "data": [{"smiles": "CC(=O)C(c1c(O)c2cccc(C(C)C)c2oc1=O)c1c(O)c2cccc(C(C)C)c2oc1=O", "note": "[Example 19]", "values": [{"measurement": "CysLT1 receptor, competition with [3H]-LTD4", "setting": "[1]", "value": "significantly relevant activity"}, {"measurement": "inhibition of human PDE4 activity", "setting": "[2]", "value": "significantly inhibited"}, {"measurement": "human prostanoid receptor, competition with tritium labelled PGD2", "setting": "[3]", "value": "significantly relevant activity"}, {"measurement": "TxA2 receptor, competition with SQ-29548", "setting": "[4]", "value": "significantly relevant activity"}, {"measurement": "suppression of ear oedema", "setting": "[5]", "value": "considered active"}]}, {"smiles": "CC(C)c1cccc2c(O)c(C(CO)c3c(O)c4cccc(C(C)C)c4oc3=O)c(=O)oc12", "note": "[Example 30]", "values": [{"measurement": "CysLT1 receptor, competition with [3H]-LTD4", "setting": "[1]", "value": "significantly relevant activity"}, {"measurement": "inhibition of human PDE4 activity", "setting": "[2]", "value": "significantly inhibited"}, {"measurement": "human prostanoid receptor, competition with tritium labelled PGD2", "setting": "[3]", "value": "significantly relevant activity"}, {"measurement": "TxA2 receptor, competition with SQ-29548", "setting": "[4]", "value": "significantly relevant activity"}, {"measurement": "suppression of ear oedema", "setting": "[5]", "value": "considered active"}]}, {"smiles": "CC(C)c1cccc2c(O)c(C(C(=O)OCCO)c3c(O)c4cccc(C(C)C)c4oc3=O)c(=O)oc12", "note": "[Example 50]", "values": [{"measurement": "CysLT1 receptor, competition with [3H]-LTD4", "setting": "[1]", "value": "significantly relevant activity"}, {"measurement": "inhibition of human PDE4 activity", "setting": "[2]", "value": "significantly inhibited"}, {"measurement": "human prostanoid receptor, competition with tritium labelled PGD2", "setting": "[3]", "value": "significantly relevant activity"}, {"measurement": "TxA2 receptor, competition with SQ-29548", "setting": "[4]", "value": "significantly relevant activity"}, {"measurement": "suppression of ear oedema", "setting": "[5]", "value": "considered active"}]}]}
